Legend:
Assay in all cases: KINOMEscan competition binding
Conditions in all cases: compound 10.0 µM
[1] = molecular target: GSK3B (human) (UniProt P49841)
[2] = molecular target: MAPKAPK2 (human) (UniProt P49137)
[3] = molecular target: PAK1 (human) (UniProt Q13153)
[4] = molecular target: EPHA1 (human) (UniProt P21709)
[5] = molecular target: LIMK1 (human) (UniProt P53667)
[6] = molecular target: STK35 (human) (UniProt Q8TDR2)
[7] = molecular target: SYK (human) (UniProt P43405)
[8] = molecular target: STK33 (human) (UniProt Q9BYT3)
[9] = molecular target: CDC42BPB (human) (UniProt Q9Y5S2)
[10] = molecular target: PDGFRA (human) (UniProt P16234)
[11] = molecular target: CDK16 (human) (UniProt Q00536)
[12] = molecular target: CDK11B (human) (UniProt P21127)
[13] = molecular target: PIK3CD (human) (UniProt O00329)
[14] = molecular target: RET (human) (UniProt P07949)
[15] = molecular target: IRAK3 (human) (UniProt Q9Y616)
[16] = molecular target: MERTK (human) (UniProt Q12866)
[17] = molecular target: CAMKK1 (human) (UniProt Q8N5S9)
[18] = molecular target: PRKX (human) (UniProt P51817)
[19] = molecular target: STK4 (human) (UniProt Q13043)
[20] = molecular target: CHUK (human) (UniProt O15111)
[21] = molecular target: PRKD2 (human) (UniProt Q9BZL6)
[22] = molecular target: CDK15 (human) (UniProt Q96Q40)
[23] = molecular target: CSNK1D (human) (UniProt P48730)
[24] = molecular target: MAPK11 (human) (UniProt Q15759)
[25] = molecular target: CDKL2 (human) (UniProt Q92772)
[26] = molecular target: CLK4 (human) (UniProt Q9HAZ1)
[27] = molecular target: CDK18 (human) (UniProt Q07002)
[28] = molecular target: TYRO3 (human) (UniProt Q06418)
[29] = molecular target: PIM1 (human) (UniProt P11309)
[30] = molecular target: RIOK1 (human) (UniProt Q9BRS2)
[31] = molecular target: STK10 (human) (UniProt O94804)
[32] = molecular target: CDK8 (human) (UniProt P49336)
[33] = molecular target: STK3 (human) (UniProt Q13188)
[34] = molecular target: SRC (human) (UniProt P12931)
[35] = molecular target: DAPK3 (human) (UniProt O43293)
[36] = molecular target: RPS6KA2 KD1 (human) (UniProt Q15349)
[37] = molecular target: RAF1 (human) (UniProt P04049)
[38] = tested on: FLT3 (human), P36888 [N841I]
[39] = molecular target: MKNK1 (human) (UniProt Q9BUB5)
[40] = molecular target: MAP3K4 (human) (UniProt Q9Y6R4)

Sequence of PIK3CD (human) (O00329 whole entry, looked up): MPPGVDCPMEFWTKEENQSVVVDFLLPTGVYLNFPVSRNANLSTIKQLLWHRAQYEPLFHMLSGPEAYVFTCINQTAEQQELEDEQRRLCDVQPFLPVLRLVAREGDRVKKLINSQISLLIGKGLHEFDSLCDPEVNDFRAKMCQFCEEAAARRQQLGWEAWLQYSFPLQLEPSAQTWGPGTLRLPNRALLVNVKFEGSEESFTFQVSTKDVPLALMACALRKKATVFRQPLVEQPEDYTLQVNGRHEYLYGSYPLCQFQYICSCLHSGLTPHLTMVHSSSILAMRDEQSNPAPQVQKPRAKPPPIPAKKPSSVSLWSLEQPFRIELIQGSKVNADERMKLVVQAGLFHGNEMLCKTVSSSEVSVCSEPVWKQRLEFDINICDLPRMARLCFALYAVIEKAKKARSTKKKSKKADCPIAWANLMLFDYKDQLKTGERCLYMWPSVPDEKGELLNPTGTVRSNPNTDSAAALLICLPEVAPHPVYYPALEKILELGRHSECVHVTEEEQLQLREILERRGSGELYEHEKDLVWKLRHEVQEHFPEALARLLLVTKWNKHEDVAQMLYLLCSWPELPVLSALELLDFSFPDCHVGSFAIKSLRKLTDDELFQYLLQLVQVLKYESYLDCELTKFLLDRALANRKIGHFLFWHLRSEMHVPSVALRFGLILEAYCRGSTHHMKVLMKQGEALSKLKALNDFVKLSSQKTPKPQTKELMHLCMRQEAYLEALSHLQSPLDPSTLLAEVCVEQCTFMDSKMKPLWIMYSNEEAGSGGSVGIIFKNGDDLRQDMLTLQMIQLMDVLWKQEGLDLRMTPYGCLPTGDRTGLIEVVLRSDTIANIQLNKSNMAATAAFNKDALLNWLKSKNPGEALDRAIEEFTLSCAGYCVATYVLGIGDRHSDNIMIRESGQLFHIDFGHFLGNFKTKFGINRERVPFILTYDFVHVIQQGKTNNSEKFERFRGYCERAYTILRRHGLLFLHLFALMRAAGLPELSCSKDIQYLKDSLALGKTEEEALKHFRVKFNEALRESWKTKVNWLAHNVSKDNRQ
Sequence of STK35 (human) (Q8TDR2 whole entry, looked up): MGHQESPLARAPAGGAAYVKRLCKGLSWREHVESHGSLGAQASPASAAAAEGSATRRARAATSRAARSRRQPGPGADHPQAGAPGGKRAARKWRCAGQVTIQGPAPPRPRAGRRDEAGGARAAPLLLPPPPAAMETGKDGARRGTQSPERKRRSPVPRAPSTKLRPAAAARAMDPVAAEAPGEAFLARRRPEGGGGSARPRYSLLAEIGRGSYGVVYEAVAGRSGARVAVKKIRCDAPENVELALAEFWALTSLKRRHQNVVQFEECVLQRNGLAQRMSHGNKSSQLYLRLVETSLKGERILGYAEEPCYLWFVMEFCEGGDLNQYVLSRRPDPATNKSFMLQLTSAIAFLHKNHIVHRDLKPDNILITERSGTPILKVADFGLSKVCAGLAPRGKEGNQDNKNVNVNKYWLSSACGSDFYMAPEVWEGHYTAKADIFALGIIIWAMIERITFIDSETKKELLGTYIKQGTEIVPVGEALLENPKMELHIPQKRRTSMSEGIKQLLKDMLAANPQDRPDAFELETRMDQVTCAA
Sequence of STK33 (human) (Q9BYT3 whole entry, looked up): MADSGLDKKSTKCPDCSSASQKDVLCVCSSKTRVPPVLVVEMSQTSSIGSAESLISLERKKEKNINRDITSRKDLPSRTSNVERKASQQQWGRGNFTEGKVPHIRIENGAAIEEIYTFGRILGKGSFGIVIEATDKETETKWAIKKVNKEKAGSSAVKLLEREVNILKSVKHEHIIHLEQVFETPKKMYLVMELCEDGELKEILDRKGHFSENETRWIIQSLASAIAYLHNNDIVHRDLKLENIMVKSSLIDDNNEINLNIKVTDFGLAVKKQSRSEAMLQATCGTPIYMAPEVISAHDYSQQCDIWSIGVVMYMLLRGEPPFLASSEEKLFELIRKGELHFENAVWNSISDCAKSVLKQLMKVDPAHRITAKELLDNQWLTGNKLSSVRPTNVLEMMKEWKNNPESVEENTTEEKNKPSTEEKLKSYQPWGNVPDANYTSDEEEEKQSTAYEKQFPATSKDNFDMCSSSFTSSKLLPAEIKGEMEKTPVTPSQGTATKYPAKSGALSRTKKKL
Sequence of CDK8 (human) (P49336 whole entry, looked up): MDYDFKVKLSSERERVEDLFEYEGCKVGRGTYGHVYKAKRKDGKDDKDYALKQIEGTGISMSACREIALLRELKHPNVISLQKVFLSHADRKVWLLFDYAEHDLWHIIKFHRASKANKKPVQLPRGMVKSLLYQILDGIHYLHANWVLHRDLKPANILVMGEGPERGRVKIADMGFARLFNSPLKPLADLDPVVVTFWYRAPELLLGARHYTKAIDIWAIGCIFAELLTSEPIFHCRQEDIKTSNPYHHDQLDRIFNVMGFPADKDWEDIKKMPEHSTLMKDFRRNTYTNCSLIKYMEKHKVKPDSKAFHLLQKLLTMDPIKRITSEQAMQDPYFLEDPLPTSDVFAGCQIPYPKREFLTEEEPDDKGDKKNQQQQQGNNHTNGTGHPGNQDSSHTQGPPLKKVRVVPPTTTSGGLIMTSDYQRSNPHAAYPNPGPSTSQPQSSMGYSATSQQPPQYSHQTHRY
Sequence of PIM1 (human) (P11309 whole entry, looked up): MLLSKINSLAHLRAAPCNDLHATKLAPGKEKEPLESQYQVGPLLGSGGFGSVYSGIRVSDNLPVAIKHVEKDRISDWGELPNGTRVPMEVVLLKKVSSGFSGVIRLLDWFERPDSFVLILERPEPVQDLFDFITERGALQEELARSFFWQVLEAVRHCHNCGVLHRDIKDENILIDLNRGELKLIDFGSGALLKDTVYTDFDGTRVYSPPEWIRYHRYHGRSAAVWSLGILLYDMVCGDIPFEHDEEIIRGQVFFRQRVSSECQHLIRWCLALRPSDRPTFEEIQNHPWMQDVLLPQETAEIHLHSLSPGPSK
Sequence of IRAK3 (human) (Q9Y616 whole entry, looked up): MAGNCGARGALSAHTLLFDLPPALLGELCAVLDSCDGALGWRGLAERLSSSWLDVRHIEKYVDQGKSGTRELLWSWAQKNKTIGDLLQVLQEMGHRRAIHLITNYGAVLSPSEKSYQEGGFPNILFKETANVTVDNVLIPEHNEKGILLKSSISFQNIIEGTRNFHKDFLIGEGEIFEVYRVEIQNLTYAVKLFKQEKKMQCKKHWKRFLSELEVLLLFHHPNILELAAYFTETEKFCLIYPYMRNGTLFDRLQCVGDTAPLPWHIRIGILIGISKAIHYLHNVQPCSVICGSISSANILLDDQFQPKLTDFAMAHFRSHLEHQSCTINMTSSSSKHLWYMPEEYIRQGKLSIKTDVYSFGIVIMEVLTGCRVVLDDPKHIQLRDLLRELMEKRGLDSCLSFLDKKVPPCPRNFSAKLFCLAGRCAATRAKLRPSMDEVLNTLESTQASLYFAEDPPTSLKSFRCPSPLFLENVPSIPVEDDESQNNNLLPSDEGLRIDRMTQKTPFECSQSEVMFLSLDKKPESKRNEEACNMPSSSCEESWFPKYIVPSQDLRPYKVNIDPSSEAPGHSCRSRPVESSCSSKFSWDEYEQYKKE
Sequence of CDK15 (human) (Q96Q40 whole entry, looked up): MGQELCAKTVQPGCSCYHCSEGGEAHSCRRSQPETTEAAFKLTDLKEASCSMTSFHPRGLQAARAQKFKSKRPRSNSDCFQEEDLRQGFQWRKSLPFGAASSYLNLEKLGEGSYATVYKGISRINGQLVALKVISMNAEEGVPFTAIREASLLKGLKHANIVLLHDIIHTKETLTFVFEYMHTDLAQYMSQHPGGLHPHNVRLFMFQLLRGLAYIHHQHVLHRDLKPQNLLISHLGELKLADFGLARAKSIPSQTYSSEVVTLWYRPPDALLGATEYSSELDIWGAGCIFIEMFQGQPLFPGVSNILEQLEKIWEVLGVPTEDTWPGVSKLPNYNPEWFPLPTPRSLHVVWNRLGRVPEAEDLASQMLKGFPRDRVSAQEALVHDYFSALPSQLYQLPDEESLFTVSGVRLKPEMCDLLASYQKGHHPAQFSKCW
Sequence of PDGFRA (human) (P16234 whole entry, looked up): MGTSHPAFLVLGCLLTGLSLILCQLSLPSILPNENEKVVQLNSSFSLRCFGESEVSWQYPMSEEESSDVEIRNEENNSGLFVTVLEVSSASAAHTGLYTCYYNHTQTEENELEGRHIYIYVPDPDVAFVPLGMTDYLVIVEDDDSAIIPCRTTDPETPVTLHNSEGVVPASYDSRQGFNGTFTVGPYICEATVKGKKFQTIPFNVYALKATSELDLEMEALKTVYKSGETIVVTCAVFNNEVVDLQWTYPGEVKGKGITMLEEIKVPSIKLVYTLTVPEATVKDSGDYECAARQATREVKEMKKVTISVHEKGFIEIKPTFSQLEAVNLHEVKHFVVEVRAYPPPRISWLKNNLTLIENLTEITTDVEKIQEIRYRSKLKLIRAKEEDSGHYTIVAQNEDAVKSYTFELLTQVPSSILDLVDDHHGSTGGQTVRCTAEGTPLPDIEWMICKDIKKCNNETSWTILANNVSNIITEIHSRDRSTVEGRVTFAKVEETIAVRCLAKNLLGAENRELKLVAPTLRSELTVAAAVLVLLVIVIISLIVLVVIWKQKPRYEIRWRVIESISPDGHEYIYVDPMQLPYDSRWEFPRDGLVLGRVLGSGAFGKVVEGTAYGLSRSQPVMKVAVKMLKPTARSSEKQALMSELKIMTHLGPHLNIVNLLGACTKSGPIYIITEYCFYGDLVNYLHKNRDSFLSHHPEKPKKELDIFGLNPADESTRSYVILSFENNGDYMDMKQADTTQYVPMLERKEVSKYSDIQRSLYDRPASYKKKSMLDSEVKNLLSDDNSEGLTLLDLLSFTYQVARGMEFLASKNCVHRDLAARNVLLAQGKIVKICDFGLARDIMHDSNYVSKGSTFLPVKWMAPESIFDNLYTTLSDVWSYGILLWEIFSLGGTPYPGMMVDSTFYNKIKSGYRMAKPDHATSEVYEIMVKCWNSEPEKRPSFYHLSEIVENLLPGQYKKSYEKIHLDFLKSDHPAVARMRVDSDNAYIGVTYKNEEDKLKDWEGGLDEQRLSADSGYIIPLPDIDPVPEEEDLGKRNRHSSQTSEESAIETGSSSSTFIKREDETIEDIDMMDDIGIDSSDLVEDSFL

Row | SMILES | kinase still bound, per cent of control [1] [%] | kinase still bound, per cent of control [2] [%] | kinase still bound, per cent of control [3] [%] | kinase still bound, per cent of control [4] [%] | kinase still bound, per cent of control [5] [%] | kinase still bound, per cent of control [6] [%] | kinase still bound, per cent of control [7] [%] | kinase still bound, per cent of control [8] [%] | kinase still bound, per cent of control [9] [%] | kinase still bound, per cent of control [10] [%] | kinase still bound, per cent of control [11] [%] | kinase still bound, per cent of control [12] [%] | kinase still bound, per cent of control [13] [%] | kinase still bound, per cent of control [14] [%] | kinase still bound, per cent of control [15] [%] | kinase still bound, per cent of control [16] [%] | kinase still bound, per cent of control [17] [%] | kinase still bound, per cent of control [18] [%] | kinase still bound, per cent of control [19] [%] | kinase still bound, per cent of control [20] [%] | also measured
1 | Cc1ccc(NC(=O)c2cccc(C(C)(C)C#N)c2)cc1Nc1ccc2ncn(C)c(=O)c2c1 | 95 | 100 | 100 | 10 | 100 | 75 | 100 | 99 | 100 | 0.1 | 100 | 11 | 99 | 0.15 | 95 | 100 | 34 | 100 | 100 | 72 | kinase still bound, per cent of control [21]: 99%; kinase still bound, per cent of control [22]: 100%; kinase still bound, per cent of control [23]: 100%; kinase still bound, per cent of control [24]: 0%; kinase still bound, per cent of control [25]: 85%; kinase still bound, per cent of control [26]: 100%; kinase still bound, per cent of control [27]: 100%; kinase still bound, per cent of control [28]: 100%; kinase still bound, per cent of control [29]: 100%; kinase still bound, per cent of control [30]: 100%; kinase still bound, per cent of control [31]: 0.1%; kinase still bound, per cent of control [32]: 22%; kinase still bound, per cent of control [33]: 100%; kinase still bound, per cent of control [34]: 0.55%; kinase still bound, per cent of control [35]: 85%; kinase still bound, per cent of control [36]: 89%; kinase still bound, per cent of control [37]: 2.3%; kinase still bound, per cent of control [38]: 62%; kinase still bound, per cent of control [39]: 100%; kinase still bound, per cent of control [40]: 100%
2 | C[C@@H](Oc1cc(-n2cnc3ccc(CN4CCN(C)CC4)cc32)sc1C(N)=O)c1ccccc1C(F)(F)F | 100 | 100 | 100 | 94 | 100 | 76 | 100 | 75 | 100 | 100 | 100 | 100 | 14 | 100 | 38 | 24 | 99 | 100 | 100 | 65 | kinase still bound, per cent of control [21]: 27%; kinase still bound, per cent of control [22]: 67%; kinase still bound, per cent of control [23]: 100%; kinase still bound, per cent of control [24]: 100%; kinase still bound, per cent of control [25]: 90%; kinase still bound, per cent of control [26]: 59%; kinase still bound, per cent of control [27]: 100%; kinase still bound, per cent of control [28]: 100%; kinase still bound, per cent of control [29]: 3%; kinase still bound, per cent of control [30]: 4.4%; kinase still bound, per cent of control [31]: 0%; kinase still bound, per cent of control [32]: 95%; kinase still bound, per cent of control [33]: 74%; kinase still bound, per cent of control [34]: 100%; kinase still bound, per cent of control [35]: 15%; kinase still bound, per cent of control [36]: 4%; kinase still bound, per cent of control [37]: 100%; kinase still bound, per cent of control [38]: 1.2%; kinase still bound, per cent of control [39]: 100%; kinase still bound, per cent of control [40]: 100%
3 | O=C1Nc2ccc(I)cc2/C1=C/c1cc(Br)c(O)c(Br)c1 | 91 | 100 | 100 | 98 | 100 | 100 | 78 | 94 | 100 | 22 | 89 | 100 | 81 | 100 | 62 | 100 | 7.6 | 100 | 52 | 100 | kinase still bound, per cent of control [21]: 100%; kinase still bound, per cent of control [22]: 100%; kinase still bound, per cent of control [23]: 72%; kinase still bound, per cent of control [24]: 88%; kinase still bound, per cent of control [25]: 82%; kinase still bound, per cent of control [26]: 36%; kinase still bound, per cent of control [27]: 100%; kinase still bound, per cent of control [28]: 88%; kinase still bound, per cent of control [29]: 2.8%; kinase still bound, per cent of control [30]: 14%; kinase still bound, per cent of control [31]: 100%; kinase still bound, per cent of control [32]: 62%; kinase still bound, per cent of control [33]: 3.3%; kinase still bound, per cent of control [34]: 100%; kinase still bound, per cent of control [35]: 2.6%; kinase still bound, per cent of control [36]: 58%; kinase still bound, per cent of control [37]: 0.65%; kinase still bound, per cent of control [38]: 12%; kinase still bound, per cent of control [39]: 83%; kinase still bound, per cent of control [40]: 95%

— the kinase profiling compilation of Christmann-Franck et al. (2016)
